In patent publication US6982330B2, “Carbazole based compound, coloring material, colored high molecular organic material and electroluminescent material” (Dai Nippon Printing Co., LTD, priority 2002, dated 2006):

Columns and labels:
[1] = Suppressibility of crystallization (film formation ability) of spin-coated layer on glass plate; type: physicochemical; conditions: dried at ambient temperature 30 minutes
Description: A toluene solution containing 2% by weight of the carbazole based compound of the formula (4) synthesized in Example 1 was prepared. Also, the other toluene solution containing 2% by weight of the same carbazole based compound and 2% by weight of an acrylic binder resin was prepared.
For the comparative examples, the other toluene solution containing 2% by weight of the carbazole (available from Sigma Aldrich Co,.) and the still other toluene solution containing 2% by weight of the carbazole and 2% by weight of the acrylic binder resin were prepared.
2 ml of the each toluene solution was dropped on a non-alkaline glass plate with 5 cm-square shape, and carried out a spin coating at 1,000 rotation per minute for about 2 seconds. Thereafter, it was dried at ambient temperature for 30 minutes, and then a surface of the coating layer was observed and evaluation was carried out regarding suitablility of coating and film-formation process and suppressibility of crystallizing.

[2] = Solubility to solvent (toluene or xylene, 2% by weight, 50° C.); type: physicochemical; conditions: added so as to make concentration 2% by weight, stirred at 50° C. for one hour
Description: The carbazole based compound of the formula (4) synthesized in Example 1 was added in the toluene or xylene so as to make concentration at 2% by weight, and then stirred in a thermal condition at 50° C. for one hour.

SMILES	crystallization of coating layer (visual observation) ([1]; toluene solution containing 2% by weight of compound alone)	crystallization of coating layer (visual observation) ([1]; toluene solution containing 2% by weight of compound and 2% by weight of acrylic binder resin)	solubility in toluene or xylene [2]
c1ccc2c(c1)[nH]c1ccccc12 [carbazole]	crystallized to an extent that findable by visual observation	crystallized to an extent that findable by visual observation	
c1cc2cccc3c4cccc5cccc(c(c1)c23)c54 [perylene]			solubility was insufficient
